Results reported in ChEMBL document CHEMBL1146769, “The discovery of N-(1,3-thiazol-2-yl)pyridin-2-amines as potent inhibitors of KDR kinase” (Bioorg Med Chem Lett, 2004).

Tests used:
[1] = target: Proto-oncogene tyrosine-protein kinase Src (Homo sapiens) (UniProt P12931); assay: Selectivity for Src protein tyrosine kinase over (KDR) kinase insert domain receptor
[2] = target: Fibroblast growth factor receptor 1 (Homo sapiens) (UniProt P11362); assay: Selectivity for Fibroblast growth factor receptor 1 over (KDR) kinase insert domain receptor
[3] = target: Platelet-derived growth factor receptor beta (Homo sapiens) (UniProt P09619); assay: Selectivity for PDGFRbeta over (KDR) kinase insert domain receptor
[4] = target: Fibroblast growth factor receptor 2 (Homo sapiens) (UniProt P21802); assay: Selectivity for Fibroblast growth factor receptor 2 over (KDR) kinase insert domain receptor
[5] = target: Vascular endothelial growth factor receptor 1 (Homo sapiens) (UniProt P17948); assay: Selectivity for Vascular endothelial growth factor receptor 1 over (KDR) kinase insert domain receptor
[6] = target: Vascular endothelial growth factor receptor 3 (Homo sapiens) (UniProt P35916); assay: Selectivity for Vascular endothelial growth factor receptor 3 over (KDR) kinase insert domain receptor
[7] = target: Vascular endothelial growth factor receptor 2 (Homo sapiens, UniProt P35968); assay: Inhibitory activity towards vascular endothelial growth factor receptor 2
Sequence of Vascular endothelial growth factor receptor 2 (P35968 whole entry): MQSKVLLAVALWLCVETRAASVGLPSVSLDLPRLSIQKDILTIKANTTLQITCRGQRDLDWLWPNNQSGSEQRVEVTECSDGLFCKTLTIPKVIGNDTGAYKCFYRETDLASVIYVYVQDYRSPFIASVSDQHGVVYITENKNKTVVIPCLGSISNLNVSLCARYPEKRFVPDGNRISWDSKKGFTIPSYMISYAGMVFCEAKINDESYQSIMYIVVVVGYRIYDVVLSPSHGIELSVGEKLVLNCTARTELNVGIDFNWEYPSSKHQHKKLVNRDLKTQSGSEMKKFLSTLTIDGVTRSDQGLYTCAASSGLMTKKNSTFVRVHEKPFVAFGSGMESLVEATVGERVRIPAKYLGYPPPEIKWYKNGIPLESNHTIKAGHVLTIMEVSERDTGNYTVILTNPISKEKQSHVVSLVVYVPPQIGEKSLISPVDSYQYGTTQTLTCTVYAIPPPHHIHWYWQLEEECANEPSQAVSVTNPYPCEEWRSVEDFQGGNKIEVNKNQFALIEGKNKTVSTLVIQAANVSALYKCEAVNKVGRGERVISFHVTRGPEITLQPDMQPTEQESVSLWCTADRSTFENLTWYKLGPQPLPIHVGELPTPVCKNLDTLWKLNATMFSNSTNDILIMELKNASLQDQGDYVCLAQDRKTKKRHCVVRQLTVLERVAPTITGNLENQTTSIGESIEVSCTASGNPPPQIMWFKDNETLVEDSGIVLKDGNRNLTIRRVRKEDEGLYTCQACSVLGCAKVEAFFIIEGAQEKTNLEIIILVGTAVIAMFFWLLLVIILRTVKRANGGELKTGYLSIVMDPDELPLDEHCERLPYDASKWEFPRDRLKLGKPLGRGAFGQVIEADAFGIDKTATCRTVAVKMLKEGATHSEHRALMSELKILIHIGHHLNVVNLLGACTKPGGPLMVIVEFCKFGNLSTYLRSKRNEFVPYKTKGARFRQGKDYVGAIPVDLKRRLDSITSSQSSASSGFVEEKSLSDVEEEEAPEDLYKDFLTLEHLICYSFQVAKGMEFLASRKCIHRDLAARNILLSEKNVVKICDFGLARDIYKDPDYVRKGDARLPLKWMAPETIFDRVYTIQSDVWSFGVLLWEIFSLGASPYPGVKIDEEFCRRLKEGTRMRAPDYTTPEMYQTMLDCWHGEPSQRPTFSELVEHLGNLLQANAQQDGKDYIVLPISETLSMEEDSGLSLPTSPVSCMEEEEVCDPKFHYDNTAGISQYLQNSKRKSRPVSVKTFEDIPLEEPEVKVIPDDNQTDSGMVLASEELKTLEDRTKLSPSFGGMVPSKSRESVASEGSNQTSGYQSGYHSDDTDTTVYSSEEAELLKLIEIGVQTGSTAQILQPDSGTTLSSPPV

Sequence of Fibroblast growth factor receptor 2 (Homo sapiens) (P21802 22-821 limits assumed): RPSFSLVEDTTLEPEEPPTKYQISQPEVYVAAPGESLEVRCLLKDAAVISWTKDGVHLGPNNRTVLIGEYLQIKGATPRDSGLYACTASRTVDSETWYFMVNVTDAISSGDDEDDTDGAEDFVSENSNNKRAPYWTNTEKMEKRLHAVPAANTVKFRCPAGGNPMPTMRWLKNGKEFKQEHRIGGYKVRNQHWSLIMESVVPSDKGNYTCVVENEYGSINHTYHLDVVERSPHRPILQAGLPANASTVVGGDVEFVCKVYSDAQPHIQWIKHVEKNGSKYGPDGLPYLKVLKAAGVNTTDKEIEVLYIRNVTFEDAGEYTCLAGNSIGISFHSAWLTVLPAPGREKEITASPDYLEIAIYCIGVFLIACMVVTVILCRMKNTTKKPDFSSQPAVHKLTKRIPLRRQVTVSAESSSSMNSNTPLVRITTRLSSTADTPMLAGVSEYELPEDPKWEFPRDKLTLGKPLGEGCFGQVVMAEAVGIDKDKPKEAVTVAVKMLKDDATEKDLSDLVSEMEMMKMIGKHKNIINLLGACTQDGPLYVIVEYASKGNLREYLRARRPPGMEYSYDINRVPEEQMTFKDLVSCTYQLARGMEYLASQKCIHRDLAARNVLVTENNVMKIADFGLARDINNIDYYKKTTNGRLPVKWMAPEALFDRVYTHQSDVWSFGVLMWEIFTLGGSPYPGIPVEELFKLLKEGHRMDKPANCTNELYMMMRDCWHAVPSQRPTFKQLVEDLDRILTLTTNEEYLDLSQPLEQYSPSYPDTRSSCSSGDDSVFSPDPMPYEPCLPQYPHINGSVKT
Sequence of Vascular endothelial growth factor receptor 1 (Homo sapiens) (P17948 whole entry, the tested form may be a part): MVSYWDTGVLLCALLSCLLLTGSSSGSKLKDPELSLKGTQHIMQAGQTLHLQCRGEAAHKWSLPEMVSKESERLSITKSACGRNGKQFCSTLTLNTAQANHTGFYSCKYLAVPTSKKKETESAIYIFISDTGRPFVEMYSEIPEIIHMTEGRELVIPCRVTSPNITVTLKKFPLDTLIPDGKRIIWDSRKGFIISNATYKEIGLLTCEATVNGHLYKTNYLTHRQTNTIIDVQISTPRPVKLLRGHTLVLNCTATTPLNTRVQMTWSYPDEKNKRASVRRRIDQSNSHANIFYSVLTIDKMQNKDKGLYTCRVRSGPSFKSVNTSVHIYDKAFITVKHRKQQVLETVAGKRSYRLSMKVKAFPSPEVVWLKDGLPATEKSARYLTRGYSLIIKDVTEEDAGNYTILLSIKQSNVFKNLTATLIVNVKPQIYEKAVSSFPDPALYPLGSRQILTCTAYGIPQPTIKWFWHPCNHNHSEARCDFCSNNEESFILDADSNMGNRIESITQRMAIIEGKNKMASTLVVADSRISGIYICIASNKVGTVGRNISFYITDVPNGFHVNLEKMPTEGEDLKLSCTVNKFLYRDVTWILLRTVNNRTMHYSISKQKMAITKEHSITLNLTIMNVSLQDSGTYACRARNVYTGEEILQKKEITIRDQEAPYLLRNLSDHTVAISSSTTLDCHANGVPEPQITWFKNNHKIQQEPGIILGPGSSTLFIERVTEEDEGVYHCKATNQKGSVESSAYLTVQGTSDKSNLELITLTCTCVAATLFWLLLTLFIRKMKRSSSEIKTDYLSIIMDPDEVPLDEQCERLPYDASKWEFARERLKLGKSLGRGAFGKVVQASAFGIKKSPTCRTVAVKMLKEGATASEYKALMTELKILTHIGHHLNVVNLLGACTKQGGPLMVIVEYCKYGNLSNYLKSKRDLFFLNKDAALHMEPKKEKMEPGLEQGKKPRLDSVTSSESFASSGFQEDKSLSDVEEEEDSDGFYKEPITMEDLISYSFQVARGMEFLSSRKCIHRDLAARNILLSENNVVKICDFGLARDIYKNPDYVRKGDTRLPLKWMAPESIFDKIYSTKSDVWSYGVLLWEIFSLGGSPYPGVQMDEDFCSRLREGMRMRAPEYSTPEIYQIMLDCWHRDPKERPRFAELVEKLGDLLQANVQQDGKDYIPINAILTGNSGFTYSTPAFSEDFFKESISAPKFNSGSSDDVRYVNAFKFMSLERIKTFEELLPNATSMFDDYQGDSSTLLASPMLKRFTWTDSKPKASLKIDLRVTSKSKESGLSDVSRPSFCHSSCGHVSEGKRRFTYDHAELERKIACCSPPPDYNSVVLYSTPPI
Sequence of Platelet-derived growth factor receptor beta (Homo sapiens) (P09619 whole entry, the tested form may be a part): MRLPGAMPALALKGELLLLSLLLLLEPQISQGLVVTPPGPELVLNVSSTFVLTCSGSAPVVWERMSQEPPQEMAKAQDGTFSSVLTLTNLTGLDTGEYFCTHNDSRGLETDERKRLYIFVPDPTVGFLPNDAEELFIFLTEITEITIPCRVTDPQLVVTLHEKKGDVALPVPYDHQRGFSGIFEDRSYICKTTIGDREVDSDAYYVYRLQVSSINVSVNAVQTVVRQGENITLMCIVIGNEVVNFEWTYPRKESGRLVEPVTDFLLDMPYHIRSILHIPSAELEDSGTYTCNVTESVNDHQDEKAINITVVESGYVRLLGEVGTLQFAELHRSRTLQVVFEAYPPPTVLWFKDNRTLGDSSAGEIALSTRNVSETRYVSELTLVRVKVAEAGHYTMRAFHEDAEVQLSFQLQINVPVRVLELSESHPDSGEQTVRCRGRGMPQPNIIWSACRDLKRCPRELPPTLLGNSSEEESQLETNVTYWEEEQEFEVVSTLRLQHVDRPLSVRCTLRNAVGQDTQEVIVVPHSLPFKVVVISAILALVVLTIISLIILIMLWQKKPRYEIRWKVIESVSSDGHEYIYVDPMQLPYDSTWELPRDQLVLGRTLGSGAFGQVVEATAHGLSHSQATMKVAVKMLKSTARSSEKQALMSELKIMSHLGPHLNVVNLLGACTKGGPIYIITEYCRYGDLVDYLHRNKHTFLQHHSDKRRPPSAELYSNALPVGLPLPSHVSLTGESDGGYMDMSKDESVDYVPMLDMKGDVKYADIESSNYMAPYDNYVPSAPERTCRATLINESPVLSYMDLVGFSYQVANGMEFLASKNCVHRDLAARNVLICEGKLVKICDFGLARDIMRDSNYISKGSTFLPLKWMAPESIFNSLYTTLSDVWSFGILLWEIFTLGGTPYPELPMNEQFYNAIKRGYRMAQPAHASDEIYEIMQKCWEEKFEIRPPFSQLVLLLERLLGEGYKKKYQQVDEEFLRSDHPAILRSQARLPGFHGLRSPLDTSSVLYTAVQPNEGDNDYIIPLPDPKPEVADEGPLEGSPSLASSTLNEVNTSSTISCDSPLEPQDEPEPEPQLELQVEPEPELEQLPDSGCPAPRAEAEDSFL

Selectivity [1]	Selectivity [2]	Selectivity [3]	Selectivity [4]	Selectivity [5]	Selectivity [6]	IC50 [7]	SMILES
760	600	0.3	210	8	3	10 nM	Cc1cccc(Nc2ncc(-c3ccccc3)s2)n1
–	–	–	–	–	–	124 nM	c1ccc(Nc2ncc(-c3ccccc3)s2)cc1
–	–	–	–	–	–	11 nM	COc1ccnc(Nc2ncc(-c3ccccc3)s2)c1
190	220	0.5	50	7	2	6 nM	Cc1ccnc(Nc2ncc(-c3ccccc3)s2)c1
–	–	–	–	–	–	46 nM	COc1cccnc1Nc1ncc(-c2ccccc2)s1
–	–	–	–	–	–	3 nM	COc1cccc(Nc2ncc(-c3ccccc3)s2)n1
570	220	0.3	70	5	1	19 nM	Cc1ccc(Nc2ncc(-c3ccccc3)s2)nc1
–	–	–	–	–	–	259 nM	c1ccc(-c2cnc(Nc3ccncc3)s2)cc1
> 580	> 580	0.1	> 580	6	1	35 nM	Clc1ccc(Nc2ncc(-c3ccccc3)s2)nc1
840	1620	0.3	400	12	3	14 nM	Brc1cccc(Nc2ncc(-c3ccccc3)s2)n1
1200	820	1	200	16	3	13 nM	Cc1cccnc1Nc1ncc(-c2ccccc2)s1

The next lines start with the compound.

SMILES	Selectivity [1]	Selectivity [2]	Selectivity [3]	Selectivity [4]	Selectivity [5]	Selectivity [6]	IC50 [7]
Clc1cnc(Nc2ccccn2)s1	–	–	–	–	–	–	194 nM
O=C(Nc1ncc(-c2ccccc2)s1)c1ccccc1	> 240	72	–	14	4	1	–
Cc1cnc(Nc2ccccn2)s1	–	–	–	–	–	–	1270 nM
c1ccc(-c2cnc(Nc3ccccn3)o2)cc1	–	–	–	–	–	–	1880 nM
Brc1cnc(Nc2ccccn2)s1	–	–	–	–	–	–	71 nM
CCCCN(C)c1ccc(/N=N/c2ncc([N+](=O)[O-])s2)c(C)c1	> 130	> 130	–	> 130	> 130	1	–
N#Cc1cnc(Nc2ccccn2)s1	678	214	68	107	30	4	36 nM
